Our source for the Ki and Activity values is ChEMBL document CHEMBL3286092, “Discovery of 1-arylpyrrolidone derivatives as potent p53-MDM2 inhibitors based on molecule fusing strategy” (Bioorg Med Chem Lett, 2014).

Assay [1] addresses E3 ubiquitin-protein ligase Mdm2 (Homo sapiens, UniProt Q00987). Put plainly: Binding affinity to MDM2 (unknown origin) assessed as inhibition of interaction with p53 after 1 hr by fluorescence polarization binding assay.
For a further assay, the system named is A549. Put plainly: Induction of p53 level in human A549 cells after 4 hrs by Western blotting analysis. The format is functional, cell-based. For orientation: A western blot detects proteins with antibodies after separation by electrophoresis.

Chain of E3 ubiquitin-protein ligase Mdm2 (Q00987 whole entry): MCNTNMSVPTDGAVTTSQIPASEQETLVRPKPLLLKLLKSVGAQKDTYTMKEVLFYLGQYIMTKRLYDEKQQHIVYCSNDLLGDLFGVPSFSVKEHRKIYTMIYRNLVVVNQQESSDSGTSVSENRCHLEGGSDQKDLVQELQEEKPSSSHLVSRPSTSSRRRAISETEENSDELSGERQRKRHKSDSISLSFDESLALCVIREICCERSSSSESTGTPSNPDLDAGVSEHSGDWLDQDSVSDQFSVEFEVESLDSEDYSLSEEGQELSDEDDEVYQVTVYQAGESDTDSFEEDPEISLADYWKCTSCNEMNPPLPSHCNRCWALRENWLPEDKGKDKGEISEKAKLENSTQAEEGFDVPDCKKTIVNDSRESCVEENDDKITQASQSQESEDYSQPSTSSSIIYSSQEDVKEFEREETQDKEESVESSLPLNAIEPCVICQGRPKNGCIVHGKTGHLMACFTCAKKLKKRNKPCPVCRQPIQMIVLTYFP

For `CC(C)OC1=C(C(=O)c2ccccc2)C(c2ccc(Br)cc2)N(Cc2ccc(C(F)(F)F)cc2F)C1=O` (stereo not given), the Ki (in general, a dissociation constant, usually derived from enzyme kinetics or from competition with a known ligand) in assay [1] was greater than 100 µM. On the same count and under the same terms, the value for `CC(C)OC1=C(C(=O)c2ccccc2)C(c2ccc(Br)cc2)N(Cc2ccc(C(F)(F)F)cc2OC(C)C)C1=O` (stereo not given) was greater than 100 µM.

As for `C[C@@H](NC1=C(C(=O)c2ccccc2)C(c2ccc(Br)cc2)N(Cc2ccc(C(F)(F)F)cc2F)C1=O)c1ccccc1` (stereo not given in full), the Ki in assay [1] is greater than 100 µM.

For the compound `CC(C)Oc1cc(C(F)(F)F)ccc1CN1C(=O)C(N[C@H](C)c2ccccc2)=C(C(=O)c2ccccc2)C1c1ccc(Br)cc1` (stereo not given in full), the Activity entry in the assay on A549 was “Dose-dependent effect”. For the compound `COc1cc(C(F)(F)F)ccc1CN1C(=O)C(N[C@H](C)c2ccccc2)=C(C(=O)c2ccccc2)C1c1ccc(Br)cc1` (stereo not given in full), the Ki in assay [1] was greater than 100 µM.
